Columns and labels:
HOP-92 = assay: Growth inhibition of human HOP92 cells at 10 uM incubated for 48 hrs by sulforhodamine B assay relative to control; format: functional; conditions: HOP-92, 48 h, values are per cent of control
SN12C = assay: Growth inhibition of human SN12C cells at 10 uM incubated for 48 hrs by sulforhodamine B assay relative to control; format: functional; conditions: values are per cent of control
RXF 393 = assay: Growth inhibition of human RXF393 cells at 10 uM incubated for 48 hrs by sulforhodamine B assay relative to control; format: functional; conditions: RXF 393, 48 h, values are per cent of control
A498 = assay: Growth inhibition of human A498 cells at 10 uM incubated for 48 hrs by sulforhodamine B assay relative to control; format: functional; conditions: A498, 48 h, values are per cent of control
NCI/ADR-RES = assay: Growth inhibition of human NCI/ADR-RES cells at 10 uM incubated for 48 hrs by sulforhodamine B assay relative to control; format: functional; conditions: values are per cent of control
UO-31 = assay: Growth inhibition of human UO31 cells at 10 uM incubated for 48 hrs by sulforhodamine B assay relative to control; format: functional; conditions: UO-31, 48 h, values are per cent of control
MCF7 = assay: Growth inhibition of human MCF7 cells at 10 uM incubated for 48 hrs by sulforhodamine B assay relative to control; format: functional; conditions: MCF7, 48 h, values are per cent of control
MDA-MB-231 = assay: Growth inhibition of human MDA-MB-231 cells at 10 uM incubated for 48 hrs by sulforhodamine B assay relative to control; format: functional; conditions: MDA-MB-231, 48 h, values are per cent of control
BT-549 = assay: Growth inhibition of human BT549 cells at 10 uM incubated for 48 hrs by sulforhodamine B assay relative to control; format: functional; conditions: BT-549, 48 h, values are per cent of control
T47D = assay: Growth inhibition of human T47D cells at 10 uM incubated for 48 hrs by sulforhodamine B assay relative to control; format: functional; conditions: values are per cent of control
M14 = assay: Growth of human M14 cells at 10 uM incubated for 48 hrs by sulforhodamine B assay relative to control; conditions: M14, 48 h
U-251 = assay: Growth of human U251 cells at 10 uM incubated for 48 hrs by sulforhodamine B assay relative to control; conditions: U-251, 48 h
KM12 = assay: Growth of human KM12 cells at 10 uM incubated for 48 hrs by sulforhodamine B assay relative to control; conditions: KM12, 48 h
K562 = assay: Growth of human K562 cells at 10 uM incubated for 48 hrs by sulforhodamine B assay relative to control; conditions: K562, 48 h
SNB-75 = assay: Growth of human SNB75 cells at 10 uM incubated for 48 hrs by sulforhodamine B assay relative to control; conditions: SNB-75, 48 h
SNB-19 = assay: Growth of human SNB19 cells at 10 uM incubated for 48 hrs by sulforhodamine B assay relative to control; conditions: SNB-19, 48 h
SF-295 = assay: Growth of human SF295 cells at 10 uM incubated for 48 hrs by sulforhodamine B assay relative to control; conditions: SF-295, 48 h
SF-268 = assay: Growth of human SF268 cells at 10 uM incubated for 48 hrs by sulforhodamine B assay relative to control; conditions: SF-268, 48 h
HT-29 = assay: Growth of human HT-29 cells at 10 uM incubated for 48 hrs by sulforhodamine B assay relative to control; conditions: HT-29, 48 h
HOP-62 = assay: Growth of human HOP62 cells at 10 uM incubated for 48 hrs by sulforhodamine B assay relative to control; conditions: HOP-62, 48 h
OVCAR-5 = assay: Growth of human OVCAR5 cells at 10 uM incubated for 48 hrs by sulforhodamine B assay relative to control; conditions: OVCAR-5, 48 h
OVCAR-4 = assay: Growth of human OVCAR4 cells at 10 uM incubated for 48 hrs by sulforhodamine B assay relative to control; conditions: OVCAR-4, 48 h
IGROV-1 = assay: Growth of human IGROV1 cells at 10 uM incubated for 48 hrs by sulforhodamine B assay relative to control; conditions: IGROV-1, 48 h
UACC-62 = assay: Growth of human UACC62 cells at 10 uM incubated for 48 hrs by sulforhodamine B assay relative to control; conditions: UACC-62, 48 h
HCT-116 = assay: Growth of human HCT116 cells at 10 uM incubated for 48 hrs by sulforhodamine B assay relative to control; conditions: HCT-116, 48 h
UACC-257 = assay: Growth of human UACC257 cells at 10 uM incubated for 48 hrs by sulforhodamine B assay relative to control; conditions: UACC-257, 48 h
LOX IMVI = assay: Growth of human LOXIMVI cells at 10 uM incubated for 48 hrs by sulforhodamine B assay relative to control
COLO 205 = assay: Growth of human COLO205 cells at 10 uM incubated for 48 hrs by sulforhodamine B assay relative to control; conditions: COLO 205, 48 h
SK-MEL-5 = assay: Growth of human SK-MEL-5 cells at 10 uM incubated for 48 hrs by sulforhodamine B assay relative to control; conditions: SK-MEL-5, 48 h
Malme-3M = assay: Growth of human MALME-3M cells at 10 uM incubated for 48 hrs by sulforhodamine B assay relative to control
RPMI-8226 = assay: Growth of human RPMI8226 cells at 10 uM incubated for 48 hrs by sulforhodamine B assay relative to control; conditions: RPMI-8226, 48 h
SK-MEL-28 = assay: Growth of human SK-MEL-28 cells at 10 uM incubated for 48 hrs by sulforhodamine B assay relative to control; conditions: SK-MEL-28, 48 h
A549 = assay: Growth of human A549/ATCC cells at 10 uM incubated for 48 hrs by sulforhodamine B assay relative to control; conditions: A549, 48 h

CC(C)(C)S/C(Nc1ccccc1)=C(\C#N)C(=O)Nc1ccccc1
growth, % of control at 10 µM (HOP-92): 91.4%
growth, % of control at 10 µM (SN12C): 98.4%
growth, % of control at 10 µM (RXF 393): 101%
growth, % of control at 10 µM (A498): 92.9%
growth, % of control at 10 µM (NCI/ADR-RES): 100%
growth, % of control at 10 µM (UO-31): 86.1%
growth, % of control at 10 µM (MCF7): 100%
growth, % of control at 10 µM (MDA-MB-231): 98.5%
growth, % of control at 10 µM (BT-549): 99.4%
growth, % of control at 10 µM (T47D): 85.2%
growth, % of control at 10 µM (M14): 100%
growth, % of control at 10 µM (U-251): 92%
growth, % of control at 10 µM (KM12): 114%
growth, % of control at 10 µM (K562): 95.9%
growth, % of control at 10 µM (SNB-75): 96.5%
growth, % of control at 10 µM (SNB-19): 92.5%
growth, % of control at 10 µM (SF-295): 94.4%
growth, % of control at 10 µM (SF-268): 86.3%
growth, % of control at 10 µM (HT-29): 94.6%
growth, % of control at 10 µM (HOP-62): 90.6%
growth, % of control at 10 µM (OVCAR-5): 100%
growth, % of control at 10 µM (OVCAR-4): 100%
growth, % of control at 10 µM (IGROV-1): 108%
growth, % of control at 10 µM (UACC-62): 94.9%
growth, % of control at 10 µM (HCT-116): 95.2%
growth, % of control at 10 µM (UACC-257): 92.9%
growth, % of control at 10 µM (LOX IMVI): 98.8%
growth, % of control at 10 µM (COLO 205): 102%
growth, % of control at 10 µM (SK-MEL-5): 102%
growth, % of control at 10 µM (Malme-3M): 97.3%
growth, % of control at 10 µM (RPMI-8226): 95.3%
growth, % of control at 10 µM (SK-MEL-28): 105%
growth, % of control at 10 µM (A549): 88.4%

CCS/C(Nc1ccccc1)=C(\C#N)C(=O)Nc1ccc(C)cc1
growth, % of control at 10 µM (HOP-92): 62.3%
growth, % of control at 10 µM (SN12C): 94.3%
growth, % of control at 10 µM (RXF 393): 103%
growth, % of control at 10 µM (A498): 79.4%
growth, % of control at 10 µM (NCI/ADR-RES): 98.4%
growth, % of control at 10 µM (UO-31): 75.3%
growth, % of control at 10 µM (MCF7): 92.3%
growth, % of control at 10 µM (MDA-MB-231): 98.9%
growth, % of control at 10 µM (BT-549): 103%
growth, % of control at 10 µM (T47D): 72.1%
growth, % of control at 10 µM (M14): 112%
growth, % of control at 10 µM (U-251): 96.6%
growth, % of control at 10 µM (KM12): 96.6%
growth, % of control at 10 µM (K562): 80.1%
growth, % of control at 10 µM (SNB-75): 109%
growth, % of control at 10 µM (SNB-19): 93.3%
growth, % of control at 10 µM (SF-295): 95.7%
growth, % of control at 10 µM (SF-268): 86.8%
growth, % of control at 10 µM (HT-29): 89%
growth, % of control at 10 µM (HOP-62): 103%
growth, % of control at 10 µM (OVCAR-5): 101%
growth, % of control at 10 µM (OVCAR-4): 101%
growth, % of control at 10 µM (IGROV-1): 99%
growth, % of control at 10 µM (UACC-62): 80.3%
growth, % of control at 10 µM (HCT-116): 90%
growth, % of control at 10 µM (UACC-257): 99.3%
growth, % of control at 10 µM (LOX IMVI): 98.8%
growth, % of control at 10 µM (COLO 205): 117%
growth, % of control at 10 µM (SK-MEL-5): 93.6%
growth, % of control at 10 µM (Malme-3M): 101%
growth, % of control at 10 µM (RPMI-8226): 86%
growth, % of control at 10 µM (SK-MEL-28): 109%
growth, % of control at 10 µM (A549): 84.5%
